Laboratory results published in patent EP0237411A1, “(Piperidino-3)propoxy-5p-cymene, its acetyl, acetoxy and hydroxy derivatives, salts of these products, process for the preparation of these compounds and medicines containing at least one of these products as active principle” (INSTITUT DE RECHERCHES CHIMIQUES ET BIOLOGIQUES APPLIQUEES …, priority 1986, dated 1987).
Like-named read-outs stand apart in the source and are kept apart here.

Experiments:
[1] = tested on: canal déférent isolé de rat; assay: α-adrenolytic action in vitro: antagonism of noradrenaline-induced contractions of isolated rat vas deferens (pA2); type: cell-based; settings: pA2 against noradrenaline, read-out: Action α-bloquante vis-à-vis de la noradrénaline PA2 sur canal déférent isolé (converted)
From the text: 2. Détermination de l'action α-adrénolytique "in vitro" sur le canal déférent du rat.
La noradrénaline provoque des contractions du canal déférent isolé de rat. La présence dans le bain de l'organe de substances α-bloquantes antagonise ces contractions.
L'utilisation de concentrations croissantes de substances α-bloquantes permet de calculer : . la PA₂ des composés sur le canal déférent de rat.
La PA₂ étant le logarithme changé de signe de la concentration molaire des produits B 1O2O - B 1O21 - B 1O37 - -B 1O59 en présence de laquelle il faut multiplier par deux la concentration de noradrénaline pour obtenir le même effet qu'en l'absence dudit produit.

[2] = tested on: récepteurs α-adrénergiques; assay: Adrenolytic activity in vivo in the rat: protection against death induced by i.v. noradrenaline; settings: 50 mg/kg P.O, 30 min before i.v. noradrenaline (0,4 mg/kg)
Description: 3. Détermination de l'activité adrénolytique "in vivo" chez le rat
. La noradrénaline injectée à fortes doses par voie intraveineuse provoque la mort de 1OO % des animaux dans les 15 min qui suivent son injection. La mort survient par oedème pulmonaire dû à l'hypertension artérielle induite principalement par la stimulation des récepteurs α-adrénergiques.
. L'administration préalable de substances α-adrénolytiques par voie orale permet de réduire la toxicité de la noradrénaline.
Les produits B 1O2O - B 1O21 - B 1O37 - B 1O59 sont administrés par voie orale 3O min avant l'injection intraveineuse de noradrénaline (O,4 mg/kg).

[3] = Acute toxicity test in the mouse (oral); settings: in vivo, read-out: Mortalité en %
From the text: 1. Tests de toxicité aiguë chez la souris
Les résultats sont rapportés dans le tableau 1.

[4] = tested on: effet hypertenseur de la noradrénaline; assay: Urethral specificity of alpha-blocking activity in vivo in the rabbit: inhibition of noradrenaline-induced rise of arterial and urethral pressure; parameters: species or system lapin; settings: for ED50: Oryctolagus cuniculus, intravenous administration; for R DI50 (a) DI50 (u): ratio of arterial DI50 to urethral DI50
From the text: 4. Spécificité urétrale de l'activité alpha bloquante déterminée in vivo chez le lapin :
a) - Principe de la mesure
. La noradérnaline (I.V.) provoque des augmentations dépendantes des doses de la pression artérielle et de la pression urétrale. Les substances adrénolytiques alpha antagonisent ces augmentations de pression.
. Pour les produits B 1020 - B 1037 et B 1059 administrés par voie veineuse, nous avons déterminé les doses inhibant de 50 p. cent (DI₅₀ ) l'effet de la noradrénaline au niveau artériel et urétral et évaluer le rapport R de ces DI₅₀ .

[5] = arterial pressure, read-out: Doses inhibant de 50 p.cent (DI50) l'effet hypertenseur de la noradrénaline au niveau artériel DI50 (a)
[6] = urethral pressure, read-out: Doses inhibant de 50 p.cent (DI50) l'effet hypertenseur de la noradrénaline au niveau urétral DI50 (u)

Row | SMILES | Kb [1] [nM] | % de protection contre la mort [2] [%] | mortality ([3]; 100 mg/kg) [%] | mortality ([3]; 1000 mg/kg) [%] | ED50 [4, 5] [mg/kg] | ED50 [4, 6] [mg/kg] | R DI50 (a) DI50 (u) [4]
1 | CC(=O)c1cc(C(C)C)c(OCCCN2CCCCC2)cc1C [B 1021, chlorhydratede l'acétyl-2-[(pipéridino-3)propoxy]-5 p.cymène] | 1740 | 40 | 20 | 100 | – | – | –
2 | Cc1ccc(C(C)C)c(OCCCN2CCCCC2)c1 [B 1020, chlorhydrate du [(pipéridino-3)propoxy]-3 p.cymène] | 302 | 80 | 0 | 40 | > 3 | 1.7 | > 1,7
3 | CC(=O)Oc1cc(C(C)C)c(OCCCN2CCCCC2)cc1C [B 1059, chlorhydratede l'acétoxy-2-[(pipéridino-3)propoxy]-5 p.cymène] | 126 | 50 | 0 | 100 | > 3 | 0.8 | > 3,7
4 | Cc1cc(OCCCN2CCCCC2)c(C(C)C)cc1O [B 1037, chlorhydratede l'hydroxy-2-[(pipéridino-3)propoxy]-5 p.cymène] | 151 | 50 | 0 | 100 | > 3 | 0.5 | > 6
5 | CC(=O)Oc1cc(C(C)C)c(OCCN(C)C)cc1C [Thymoxamine, chlorhydrate de thymoxamine, reference compound] | 56.2 | 80 | 0 | 100 | 2.9 | 0.7 | 4,1
